Measurements as given in ChEMBL document CHEMBL4177534, “Discovery and evaluation of 1H-pyrrolo[2,3-b]pyridine based selective and reversible small molecule BTK inhibitors for the treatment of rheumatoid arthritis” (Bioorg Med Chem Lett, 2017).

Assays:
Assay type in all cases: functional
Design in all cases: scale not given: the % may be the effect or the level left
[1] = system: Mus musculus; experiment: Ex-vivo inhibition of BTK in C57BL/6J mouse assessed as anti-mouse IgD antibody stimulated BCR mediated CD69 level in whole blood isolated from 100 mg/kg, po bid treated mouse measured after 2 hrs post first dose by flow cytometry relative to control
[2] = system: Mus musculus; experiment: Ex-vivo inhibition of BTK in C57BL/6J mouse assessed as anti-mouse IgD antibody stimulated BCR mediated CD69 level in whole blood isolated from 30 mg/kg, po bid treated mouse measured after 2 hrs post first dose by flow cytometry relative to control
[3] = system: Mus musculus; experiment: Ex-vivo inhibition of BTK in C57BL/6J mouse assessed as anti-mouse IgD antibody stimulated BCR mediated CD69 level in whole blood isolated from 100 mg/kg, po bid treated mouse measured after 6 hrs post first dose by flow cytometry relative to control

CCN1CCN(Cc2ccc(-c3cc4c(-c5cccc(N6CCOc7cc(C8CC8)cc(F)c7C6=O)c5CO)ccnc4[nH]3)nc2)CC1
Activity [1]: 72% | Activity [2]: 45% | Activity [3]: 83%
